Data as given in PubChem BioAssay AID1963977 (Molecular Pharmacology Branch, DTP, NCI, 2024).

Tested on: 624824-186-R-J3-PDC multicell spheroids, viability
Assay: Anticancer human tumor 624824-186-R-J3-PDC patient-derived colon adenocarcinoma cell line growth inhibition [PI3K]
Settings: for viability, T/C: stronger effect = lower value
How it was run: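 Three cell types, namely tumor cells, endothelial cells and mesenchymal stem cells, formed each spheroid. Combinations with four PI3K inhibitors were screened at clinically achievable concentrations decreasing by half-log, and spheroid viability was recorded.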

[1] = curve of first compound, second compound 0.0316 µM
[2] = curve of first compound, second compound 0.1 µM
[3] = curve of first compound, second compound 0.316 µM
[4] = curve of first compound, second compound 1 µM
[5] = second compound 0.0316 µM, first compound 0.0316 µM
[6] = second compound 0.0316 µM, first compound 0.1 µM
[7] = second compound 0.1 µM, first compound 0.0316 µM
[8] = second compound 0.1 µM, first compound 0.1 µM
[9] = second compound 0.316 µM, first compound 0.0316 µM
[10] = second compound 0.316 µM, first compound 0.1 µM
[11] = second compound 1 µM, first compound 0.0316 µM
[12] = second compound 1 µM, first compound 0.1 µM
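Note: spheroids exposed to agents for seven days before luminescence read.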
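Throughout, for viability, T/C: luminescent signal used as a stand-in for spheroid viability; percent viability relative to DMSO vehicle control wells taken as 100%.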

## CC(=O)c1c(C)c2cnc(Nc3ccc(N4CCNCC4)cn3)nc2n(C2CCCC2)c1=O + CC(Nc1ncnc2nc[nH]c12)c1cc2cccc(Cl)c2c(=O)n1-c1ccccc1
[1]
  IC50: > 100 nM
[2]
  IC50: > 100 nM
[3]
  IC50: > 100 nM
[4]
  IC50: > 100 nM
Curve of first compound, second compound 3.16 µM
  IC50: > 100 nM
Curve of first compound, second compound 10 µM
  IC50: > 100 nM
Second compound 0.0316 µM, first compound 0.000316 µM
  viability, T/C: 107%
Second compound 0.0316 µM, first compound 0.001 µM
  viability, T/C: 96.8%
Second compound 0.0316 µM, first compound 0.00316 µM
  viability, T/C: 103%
Second compound 0.0316 µM, first compound 0.01 µM
  viability, T/C: 113%
[5]
  viability, T/C: 99.7%
[6]
  viability, T/C: 122%
Second compound 0.1 µM, first compound 0.000316 µM
  viability, T/C: 93%
Second compound 0.1 µM, first compound 0.001 µM
  viability, T/C: 91.9%
Second compound 0.1 µM, first compound 0.00316 µM
  viability, T/C: 106%
Second compound 0.1 µM, first compound 0.01 µM
  viability, T/C: 101%
[7]
  viability, T/C: 105%
[8]
  viability, T/C: 111%
Second compound 0.316 µM, first compound 0.000316 µM
  viability, T/C: 94.9%
Second compound 0.316 µM, first compound 0.001 µM
  viability, T/C: 102%
Second compound 0.316 µM, first compound 0.00316 µM
  viability, T/C: 99.9%
Second compound 0.316 µM, first compound 0.01 µM
  viability, T/C: 103%
[9]
  viability, T/C: 107%
[10]
  viability, T/C: 119%
Second compound 1 µM, first compound 0.000316 µM
  viability, T/C: 94.4%
Second compound 1 µM, first compound 0.001 µM
  viability, T/C: 103%
Second compound 1 µM, first compound 0.00316 µM
  viability, T/C: 102%
Second compound 1 µM, first compound 0.01 µM
  viability, T/C: 104%
[11]
  viability, T/C: 116%
[12]
  viability, T/C: 109%
Second compound 3.16 µM, first compound 0.000316 µM
  viability, T/C: 94.6%
Second compound 3.16 µM, first compound 0.001 µM
  viability, T/C: 116%
Second compound 3.16 µM, first compound 0.00316 µM
  viability, T/C: 113%
Second compound 3.16 µM, first compound 0.01 µM
  viability, T/C: 103%
Second compound 3.16 µM, first compound 0.0316 µM
  viability, T/C: 99.2%
Second compound 3.16 µM, first compound 0.1 µM
  viability, T/C: 110%
Second compound 10 µM, first compound 0.000316 µM
  viability, T/C: 97.7%
Second compound 10 µM, first compound 0.001 µM
  viability, T/C: 99.8%
Second compound 10 µM, first compound 0.00316 µM
  viability, T/C: 94.7%
Second compound 10 µM, first compound 0.01 µM
  viability, T/C: 89.5%
Second compound 10 µM, first compound 0.0316 µM
  viability, T/C: 90.3%
Second compound 10 µM, first compound 0.1 µM
  viability, T/C: 83%

## CNC(=O)c1ccc(N2C(=S)N(c3ccc(C#N)c(C(F)(F)F)c3)C(=O)C2(C)C)cc1F + CC(Nc1ccc2c(c1)OCCn1cc(N3C(=O)OCC3C(F)F)nc1-2)C(N)=O
Curve of first compound, second compound 0.00316 µM
  IC50: > 10000 nM
Curve of first compound, second compound 0.01 µM
  IC50: > 10000 nM
[1]
  IC50: > 10000 nM
[2]
  IC50: > 10000 nM
[3]
  IC50: > 10000 nM
[4]
  IC50: > 10000 nM
Second compound 0.00316 µM, first compound 0.0316 µM
  viability, T/C: 105%
Second compound 0.00316 µM, first compound 0.1 µM
  viability, T/C: 104%
Second compound 0.00316 µM, first compound 0.316 µM
  viability, T/C: 104%
Second compound 0.00316 µM, first compound 1 µM
  viability, T/C: 87.4%
Second compound 0.00316 µM, first compound 3.16 µM
  viability, T/C: 97%
Second compound 0.00316 µM, first compound 10 µM
  viability, T/C: 106%
Second compound 0.01 µM, first compound 0.0316 µM
  viability, T/C: 103%
Second compound 0.01 µM, first compound 0.1 µM
  viability, T/C: 101%
Second compound 0.01 µM, first compound 0.316 µM
  viability, T/C: 108%
Second compound 0.01 µM, first compound 1 µM
  viability, T/C: 97.1%
Second compound 0.01 µM, first compound 3.16 µM
  viability, T/C: 96.1%
Second compound 0.01 µM, first compound 10 µM
  viability, T/C: 99.1%
[5]
  viability, T/C: 95.4%
[6]
  viability, T/C: 104%
Second compound 0.0316 µM, first compound 0.316 µM
  viability, T/C: 102%
Second compound 0.0316 µM, first compound 1 µM
  viability, T/C: 97.3%
Second compound 0.0316 µM, first compound 3.16 µM
  viability, T/C: 99.5%
Second compound 0.0316 µM, first compound 10 µM
  viability, T/C: 99.6%
[7]
  viability, T/C: 99.6%
[8]
  viability, T/C: 101%
Second compound 0.1 µM, first compound 0.316 µM
  viability, T/C: 103%
Second compound 0.1 µM, first compound 1 µM
  viability, T/C: 101%
Second compound 0.1 µM, first compound 3.16 µM
  viability, T/C: 109%
Second compound 0.1 µM, first compound 10 µM
  viability, T/C: 80.3%
[9]
  viability, T/C: 89.4%
[10]
  viability, T/C: 90%
Second compound 0.316 µM, first compound 0.316 µM
  viability, T/C: 94.2%
Second compound 0.316 µM, first compound 1 µM
  viability, T/C: 97.8%
Second compound 0.316 µM, first compound 3.16 µM
  viability, T/C: 92%
Second compound 0.316 µM, first compound 10 µM
  viability, T/C: 82%
[11]
  viability, T/C: 90.6%
[12]
  viability, T/C: 89.2%
Second compound 1 µM, first compound 0.316 µM
  viability, T/C: 95.8%
Second compound 1 µM, first compound 1 µM
  viability, T/C: 90.5%
Second compound 1 µM, first compound 3.16 µM
  viability, T/C: 88.9%
Second compound 1 µM, first compound 10 µM
  viability, T/C: 76.4%

## CC(Nc1ccc2c(c1)OCCn1cc(N3C(=O)OCC3C(F)F)nc1-2)C(N)=O (stereo unspecified)
Compound 0.00316 µM
  viability, T/C: 101% [middle of 7 runs]
Compound 0.01 µM
  viability, T/C: 103% [middle of 7 runs]
Compound 0.0316 µM
  viability, T/C: 108% [middle of 7 runs]
Compound 0.1 µM
  viability, T/C: 109% [middle of 7 runs]
Compound 0.316 µM
  viability, T/C: 100% [middle of 7 runs]
Compound 1 µM
  viability, T/C: 88.5% [middle of 7 runs]
Compound alone, run of 04/24/2023
  IC50: > 1000 nM
